biological target: Histamine H1 receptor (Cavia porcellus, UniProt P31389); experiment: Antagonist activity at histamine H1 receptor in Cavia porcellus (guinea pig) ileum assessed as inhibition of histamine-induced contraction; conditions: read-out: pA2 (converted)
Sequence (P31389 whole entry): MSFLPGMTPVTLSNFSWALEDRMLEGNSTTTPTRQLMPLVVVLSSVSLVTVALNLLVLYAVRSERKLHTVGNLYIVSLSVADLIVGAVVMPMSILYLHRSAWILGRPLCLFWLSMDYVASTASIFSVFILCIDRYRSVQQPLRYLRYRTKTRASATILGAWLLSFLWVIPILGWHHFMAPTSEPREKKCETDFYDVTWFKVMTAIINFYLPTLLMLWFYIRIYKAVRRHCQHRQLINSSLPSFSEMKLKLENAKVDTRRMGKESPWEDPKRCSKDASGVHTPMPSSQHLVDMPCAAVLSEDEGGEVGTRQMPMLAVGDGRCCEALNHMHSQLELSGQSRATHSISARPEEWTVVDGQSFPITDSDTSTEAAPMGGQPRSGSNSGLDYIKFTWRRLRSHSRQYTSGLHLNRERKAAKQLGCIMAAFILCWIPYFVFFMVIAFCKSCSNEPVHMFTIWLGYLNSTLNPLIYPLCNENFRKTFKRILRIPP

Row | Structure (SMILES) | Kb [nM]
1 | NCCCCN1CCN(CCCCCCCOc2ccccc2)CC1 | > 100000

biological target: T1, Histamine H3 receptor (Cavia porcellus, UniProt Q9JI35); experiment: Antagonist activity at histamine H3 receptor in Cavia porcellus (guinea pig) jejunum assessed as inhibition of electrically-induced contraction; conditions: read-out: pA2 (converted)
T1 sequence (Q9JI35 whole entry): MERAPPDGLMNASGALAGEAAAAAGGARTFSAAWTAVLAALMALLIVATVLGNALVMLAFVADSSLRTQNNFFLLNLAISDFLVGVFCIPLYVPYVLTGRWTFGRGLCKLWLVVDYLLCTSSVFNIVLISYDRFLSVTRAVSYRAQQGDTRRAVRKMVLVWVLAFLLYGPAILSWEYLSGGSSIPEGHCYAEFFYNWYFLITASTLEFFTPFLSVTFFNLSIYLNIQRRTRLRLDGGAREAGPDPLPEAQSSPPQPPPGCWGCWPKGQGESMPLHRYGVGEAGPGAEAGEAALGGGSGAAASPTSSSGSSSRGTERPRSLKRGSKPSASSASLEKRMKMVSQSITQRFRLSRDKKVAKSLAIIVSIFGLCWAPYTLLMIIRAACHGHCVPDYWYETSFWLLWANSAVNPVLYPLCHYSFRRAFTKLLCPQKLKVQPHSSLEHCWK

Row | Structure (SMILES) | Kb [nM]
2 | NCCCCCCCN1CCN(CCCCCCCOc2ccccc2)CC1 | 214
3 | NCCCCCCN1CCN(CCCCCCCOc2ccccc2)CC1 | 214
4 | NCCCCCN1CCN(CCCCCCCOc2ccccc2)CC1 | 102
5 | NCCCCN1CCN(CCCCCCCOc2ccccc2)CC1 | 66.1
6 | NCCN1CCN(CCCCCCCOc2ccccc2)CC1 | 380
7 | NCCCN1CCN(CCCCCCCCCOc2ccccc2)CC1 | 102
8 | NCCCN1CCN(CCCCCCCCOc2ccccc2)CC1 | 145
9 | NCCCN1CCN(CCCCCCCOc2ccccc2)CC1 | 91.2
10 | NCCCN1CCN(CCCCCCOc2ccccc2)CC1 | 191
11 | NCCCN1CCN(CCCCCOc2ccccc2)CC1 | 158
12 | NCCCN1CCN(CCCCOc2ccccc2)CC1 | 240
13 | NCCCN1CCN(CCCOc2ccccc2)CC1 | 513
14 | NCCCN1CCN(CCOc2ccccc2)CC1 | 178
15 | S=C(NC1CCCCC1)N1CCC(c2cnc[nH]2)CC1 [THIOPERAMIDE] | 2.19

biological target: T1, Histamine H3 receptor; experiment: Antagonist activity at histamine H3 receptor in Cavia porcellus (guinea pig) ileum assessed as inhibition of electrically-induced contraction; format: tissue-based; conditions: read-out: pA2 (converted)

Row | Structure (SMILES) | Kb [nM]
16 | CN(CCCCN1CCN(CCCCCCCOc2ccccc2)CC1)C(=O)c1ccccc1 | 105
17 | CN(CCCCN1CCN(CCCCCCCOc2ccccc2)CC1)C(=O)C(F)(F)F | 100
18 | CC(=O)N(C)CCCCN1CCN(CCCCCCCOc2ccccc2)CC1 | 69.2

From ChEMBL document CHEMBL3046600, “1-Phenoxyalkyl-4-[(N,N-disubstitutedamino)alkyl]piperazine derivatives as non-imidazole histamine H3-antagonists” (Med Chem Res, 2013)
